The values below come from patent US8436159B2, “Glyphosate resistant class I 5-endolpyruvylshikimate-3-phosphate synthase (EPSPS)” (Monsanto Technology LLC, priority 2003, dated 2013).

For assay [1], the target named is T1, maize (Zea mays) class I EPSPS variant TIPS (T102I, P106S), pMON70462 (Zea mays, UniProt O24566, P106S/T102I).
T1 construct: pMON70462
T1 sequence (O24566 1-444 T102I/P106S): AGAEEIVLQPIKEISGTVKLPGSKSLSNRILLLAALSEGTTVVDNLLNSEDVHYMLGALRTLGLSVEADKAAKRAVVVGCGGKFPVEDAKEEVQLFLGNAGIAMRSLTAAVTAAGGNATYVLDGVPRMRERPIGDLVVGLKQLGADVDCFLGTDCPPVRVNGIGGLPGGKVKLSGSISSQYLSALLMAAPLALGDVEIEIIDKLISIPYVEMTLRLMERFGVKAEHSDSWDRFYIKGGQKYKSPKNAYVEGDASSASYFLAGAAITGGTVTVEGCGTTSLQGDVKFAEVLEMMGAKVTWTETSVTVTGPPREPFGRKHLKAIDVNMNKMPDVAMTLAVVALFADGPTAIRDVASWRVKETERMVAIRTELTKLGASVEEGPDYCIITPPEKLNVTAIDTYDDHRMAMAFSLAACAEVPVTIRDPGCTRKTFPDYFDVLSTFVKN
The assay can be described thus: EPSPS steady-state kinetics, TIPS variant. It counts as biochemical. The procedure:
The wild type and variant EPSPS coding sequences were cloned into a pET-19b base vector (Novagen, Madison, Wis.). The plant (maize) class I EPSPS variants so created were assigned pMON plasmid numbers (Table 2). The variant EPSPS proteins were purified from the E. coli host using the protocols outlined in the pET system manual, 9th edition (Novagen) or by the following method. A single colony or a few microliters from a glycerol stock was inoculated into 4 mL LB medium containing 0.1 mg/mL carbenicillin antibiotic. The culture was incubated with shaking at 37 C for 4 hours. The cultures were stored at 4° C. overnight. The following morning, 1 mL of the overnight culture was used to inoculate 100 mL of fresh LB medium containing 0.1 mg/mL carbenicillin. The cultures were incubated with shaking at 37 C for 4-5 hours, then the cultures were placed at 4° C. for 5-10 minutes. The cultures were then induced with IPTG (1 mM final concentration) and incubated with shaking at 30 C for 4 hours or 20° C. overnight. The cells were harvested by centrifugation at 7000 rpm for 20 minutes at 4° C. The supernatant was removed and the cells were frozen at −70° C. until further use. The proteins were extracted by resuspending the cell pellet in BugBuster reagent (Novagen) using 5 mL reagent per gram of cells. […]

Assay [2] has as its system E. coli EPSPS variant, alanine for the glycine at position 96 (G96A). To be noted: glyphosate-resistant isolate; read-out: apparent Ki for glyphosate; cited from earlier work.

In the case of `O=C(O)CNCP(=O)(O)O` [glyphosate, N-phosphonomethylglycine], the values for the Ki in assay [1] and in assay [2] were 58 ± 14 µM and 4000 µM, respectively.
